Results from patent US12121514B2, “Nonselective metabotropic glutamate receptor activators for treatment of attention deficit disorder and 22Q syndrome” (THE CHILDREN'S HOSPITAL OF PHILADELPHIA, priority 2015, dated 2024).

System: adolescent subjects with ADHD and at least one genetic alteration in an mGluR network gene
Test: Vanderbilt ADHD score (items 1-18, parent), Phase Ib trial of NFC-1
Assay type: in vivo, human
Conditions: relative to pre-study (enrollment) baseline
Source text: The Vanderbilt Rating Scale is a measure that can be completed by parents or teachers (separate forms, see Vanderbilt Rating Scale Parents and Vanderbilt Rating Scale Teachers). The Vanderbilt scale rates the child's behavior on items such as attention, finishing tasks, hyperactivity, difficulty waiting, and measures of conduct or oppositional defiant disorders—as well as measures of overall school performance and interactions with others. The first 18 items on the Vanderbilt scale correspond to those of the ADHD Rating Scale IV above while the Vanderbilt scale also includes items 19-47 related to other mental disorders including ODD (items 19-26), conduct disorder (items 27-40), anxiety (items 41, 42, and 47), and depression (items 43-46). Each of the behavioral assessment items on the Vanderbilt Scale are rated 0, 1, 2, or 3, with 0=never occurring; 1=occasionally, 2=often, and 3=very often. Thus, the ADHD Rating Scale IV, ADHD Rating Scale V, and items 1-18 of the Vanderbilt Rating Scale are equivalent scales, while additional items on the Vanderbilt Scale assess co-morbid phenotypes and disorders.
Each of the items are rated on a scale of 0, 1, 2, or 3, with 0=never; 1=occasionally, 2=often, and 3=very often. A total score of 0 to 54 is computed based on the answers to the 18 questions.
As used herein an “ADHD rating scale score,” “ADHD score” or “Vanderbilt ADHD score” are used interchangeably to refer to the computed score of the 18 items of the ADHD Rating Scale IV or V or the first 18 items of the Vanderbilt Rating Scale in any of their associated versions, e.g., for parent, teacher, or clinician to complete, and for a pediatric subject or adult subject. Clinical trials may assess the impact of drug or placebo on the ADHD score or Vanderbilt ADHD score (i.e. the score of 0 to 54 based on the first 18 items in the ADHD or Vanderbilt rating scale). In some cases, results of a clinical trial population may be analyzed by comparing the average score or a percentage change in score over time of administration of drug.
An open-label Phase Ib clinical trial was initiated to investigate the safety, pharmacokinetics and efficacy of NFC-1 (fasoracetam monohydrate) in adolescent subjects between the ages of 12 and 17 previously diagnosed with ADHD who also had at least one genetic alteration in an mGluR network gene.
Dose-escalation phase of the trial followed the PK and initial safety assessment and ran over a 5-week period. During week 1, all subjects were administered placebo capsules twice daily. After one week of placebo treatment, patients were started on 50 mg bid NFC-1 for 1 week. If safety and responsiveness data from prior dose level of fasoracetam indicated it was appropriate, subjects were then escalated to the next higher dose (100, 200, or 400 mg). […] Of the 30 trial subjects, 3 received a maximum dose of 100 mg, 9 received a maximum dose of 200 mg, and the remaining 18 received a maximum dose of 400 mg.
All efficacy assessments, except actigraphy, were made at study enrollment (“enrollment baseline”) and again, including actigraphy, once-per-week for the placebo week (“week 1” or “placebo baseline”) and at each of the 4 weeks of NFC-1 treatment. These efficacy measures include items 1-18 of the Vanderbilt scale assessing symptoms related to inattentiveness and hyperactivity-impulsiveness as well as additional questions 19-47 of the Vanderbilt scale assessing other behavioral symptoms (conducted by parent), actigraphy for quantitative measurement of activity, Quotient® ADHD test for objective measurement of micro-motion and shifts in attention state, PERMP-Math test, and CGI-I and CGI-S for assessment of global functioning. […]

[1] = Tier 1, Week 5, up to 400 mg bid
[2] = Tier 2, Week 3, up to 100 mg bid
[3] = Tier 2, Week 4, up to 200 mg bid
[4] = Tier 2, Week 5, up to 400 mg bid
[5] = Tier 3, Week 3, up to 100 mg bid
[6] = Tier 3, Week 4, up to 200 mg bid
[7] = Tier 3, Week 5, up to 400 mg bid

O=C1CC[C@H](C(=O)N2CCCCC2)N1 [NFC-1, fasoracetam monohydrate]
Percent of subjects with improvement in Vanderbilt ADHD score (at least 25% decrease) (Tier 1, Week 4, up to 200 mg bid): 88% | Percent of subjects completing the dose escalation to 400 mg bid that show improvement in Vanderbilt ADHD scores (at least 25% decrease) (Tier 1, Week 5, 400 mg bid): 89% | Percent of subjects completing the dose escalation to 400 mg bid that show robust improvement in Vanderbilt ADHD scores (at least 40% decrease) (Tier 1, Week 5, 400 mg bid): 67% | Percent of subjects demonstrating robust improvement in Vanderbilt ADHD score (at least 40% decrease) [1]: 63% | Percent of subjects with improvement in Vanderbilt ADHD score (at least 25% decrease) [1]: 75% | Percent of subjects completing the dose escalation to 400 mg bid that show improvement in Vanderbilt ADHD scores (at least 25% decrease) (Tier 2, Week 2, 50 mg bid): 20% | Percent of subjects completing the dose escalation to 400 mg bid that show robust improvement in Vanderbilt ADHD scores (at least 40% decrease) (Tier 2, Week 2, 50 mg bid): 20% | Percent of subjects demonstrating robust improvement in Vanderbilt ADHD score (at least 40% decrease) (Tier 2, Week 2, 50 mg bid): 14% | Percent of subjects with improvement in Vanderbilt ADHD score (at least 25% decrease) (Tier 2, Week 2, 50 mg bid): 29% | Percent of subjects completing the dose escalation to 400 mg bid that show improvement in Vanderbilt ADHD scores (at least 25% decrease) (Tier 2, Week 3, 100 mg bid): 20% | Percent of subjects completing the dose escalation to 400 mg bid that show robust improvement in Vanderbilt ADHD scores (at least 40% decrease) (Tier 2, Week 3, 100 mg bid): 0% | Percent of subjects demonstrating robust improvement in Vanderbilt ADHD score (at least 40% decrease) [2]: 0% | Percent of subjects with improvement in Vanderbilt ADHD score (at least 25% decrease) [2]: 14% | Percent of subjects completing the dose escalation to 400 mg bid that show improvement in Vanderbilt ADHD scores (at least 25% decrease) (Tier 2, Week 4, 200 mg bid): 20% | Percent of subjects completing the dose escalation to 400 mg bid that show robust improvement in Vanderbilt ADHD scores (at least 40% decrease) (Tier 2, Week 4, 200 mg bid): 20% | Percent of subjects demonstrating robust improvement in Vanderbilt ADHD score (at least 40% decrease) [3]: 14% | Percent of subjects with improvement in Vanderbilt ADHD score (at least 25% decrease) [3]: 43% | Percent of subjects completing the dose escalation to 400 mg bid that show improvement in Vanderbilt ADHD scores (at least 25% decrease) (Tier 2, Week 5, 400 mg bid): 80% | Percent of subjects completing the dose escalation to 400 mg bid that show robust improvement in Vanderbilt ADHD scores (at least 40% decrease) (Tier 2, Week 5, 400 mg bid): 20% | Percent of subjects demonstrating robust improvement in Vanderbilt ADHD score (at least 40% decrease) [4]: 29% | Percent of subjects with improvement in Vanderbilt ADHD score (at least 25% decrease) [4]: 86% | Percent of subjects completing the dose escalation to 400 mg bid that show improvement in Vanderbilt ADHD scores (at least 25% decrease) (Tier 3, Week 2, 50 mg bid): 33% | Percent of subjects completing the dose escalation to 400 mg bid that show robust improvement in Vanderbilt ADHD scores (at least 40% decrease) (Tier 3, Week 2, 50 mg bid): 33% | Percent of subjects demonstrating robust improvement in Vanderbilt ADHD score (at least 40% decrease) (Tier 3, Week 2, 50 mg bid): 50% | Percent of subjects with improvement in Vanderbilt ADHD score (at least 25% decrease) (Tier 3, Week 2, 50 mg bid): 50% | Percent of subjects completing the dose escalation to 400 mg bid that show improvement in Vanderbilt ADHD scores (at least 25% decrease) (Tier 3, Week 3, 100 mg bid): 0% | Percent of subjects completing the dose escalation to 400 mg bid that show robust improvement in Vanderbilt ADHD scores (at least 40% decrease) (Tier 3, Week 3, 100 mg bid): 0% | Percent of subjects demonstrating robust improvement in Vanderbilt ADHD score (at least 40% decrease) [5]: 40% | Percent of subjects with improvement in Vanderbilt ADHD score (at least 25% decrease) [5]: 40% | Percent of subjects completing the dose escalation to 400 mg bid that show improvement in Vanderbilt ADHD scores (at least 25% decrease) (Tier 3, Week 4, 200 mg bid): 0% | Percent of subjects completing the dose escalation to 400 mg bid that show robust improvement in Vanderbilt ADHD scores (at least 40% decrease) (Tier 3, Week 4, 200 mg bid): 0% | Percent of subjects demonstrating robust improvement in Vanderbilt ADHD score (at least 40% decrease) [6]: 40% | Percent of subjects with improvement in Vanderbilt ADHD score (at least 25% decrease) [6]: 40% | Percent of subjects completing the dose escalation to 400 mg bid that show improvement in Vanderbilt ADHD scores (at least 25% decrease) (Tier 3, Week 5, 400 mg bid): 67% | Percent of subjects completing the dose escalation to 400 mg bid that show robust improvement in Vanderbilt ADHD scores (at least 40% decrease) (Tier 3, Week 5, 400 mg bid): 33% | Percent of subjects demonstrating robust improvement in Vanderbilt ADHD score (at least 40% decrease) [7]: 50% | Percent of subjects with improvement in Vanderbilt ADHD score (at least 25% decrease) [7]: 75%
